Source: article PMC6891570, “Yuccalechins A–C from the Yucca schidigera Roezl ex Ortgies Bark: Elucidation of the Relative and Absolute Configurations of Three New Spirobiflavonoids and Their Cholinesterase Inhibitory Activities” (Molecules, 2019)
Read-outs that look alike come from different tables or passages of the source.

Assays:
[1] = target: T1, Electric eel AChE (Type-VI-S, EC 3.1.1.7) (Electrophorus electricus, UniProt O42275); experiment: biochemical; assay type: biochemical; conditions: for inhibition at 1000 µM: at 1000 µM final concentration, six replicates, read-out: Inhibition (% ± S.D.) AChE
T1 construct: purchased Sigma, St. Louis, MO, USA Type-VI-S (catalogue number not given)
T1 sequence (O42275 24-633): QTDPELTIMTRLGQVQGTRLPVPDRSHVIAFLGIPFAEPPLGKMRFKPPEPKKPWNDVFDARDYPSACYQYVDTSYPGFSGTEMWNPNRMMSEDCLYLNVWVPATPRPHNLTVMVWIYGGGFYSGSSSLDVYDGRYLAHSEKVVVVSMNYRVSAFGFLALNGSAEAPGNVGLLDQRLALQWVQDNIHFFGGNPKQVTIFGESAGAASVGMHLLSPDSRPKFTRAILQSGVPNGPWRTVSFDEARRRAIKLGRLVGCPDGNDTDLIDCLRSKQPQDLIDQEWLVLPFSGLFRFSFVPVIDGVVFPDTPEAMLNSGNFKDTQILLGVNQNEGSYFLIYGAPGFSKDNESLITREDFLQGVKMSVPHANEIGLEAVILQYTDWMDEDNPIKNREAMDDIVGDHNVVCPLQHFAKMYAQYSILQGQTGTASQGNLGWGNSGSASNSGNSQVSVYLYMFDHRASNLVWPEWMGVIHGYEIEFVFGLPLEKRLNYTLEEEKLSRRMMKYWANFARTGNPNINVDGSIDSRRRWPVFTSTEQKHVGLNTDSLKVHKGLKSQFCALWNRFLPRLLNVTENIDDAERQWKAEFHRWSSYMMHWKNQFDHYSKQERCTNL
Experimental: (§1) The modified Ellman’s assay was used to measure the anti-acetylcholinesterase and anti-butyrylcholinesterase activities of 13, 26, and 29 [81, 82].
(§2) AChE and BChE inhibitory activities were measured by a slightly modified spectrophotometric method of Ellman et al.. Electric eel AChE (Type-VI-S, EC 3.1.1.7, Sigma, St. Louis, MO, USA) and horse serum BChE (EC 3.1.1.8, Sigma, St. Louis, MO, USA) were used as the enzyme sources, while acetylthiocholine iodide and butyrylthiocholine chloride (Sigma, St. Louis, MO, USA) were employed as the substrates of the reaction. 5,5′-Dithio-bis(2-nitrobenzoic) acid (DTNB, Sigma, St. Louis, MO, USA) was used to measure the anticholinesterase activity as the coloring agent. All reagents and conditions were exactly the same as described in our previous publication. Hydrolysis of acetylthiocholine iodide/butyrylthiocholine chloride was monitored by the formation of the yellow 5-thio-2-nitrobenzoate anion, as a result of the reaction of DTNB with thiocholines, catalyzed by enzymes at 412 nm utilizing a 96-well microplate reader (VersaMax Molecular Devices, USA). The measurements and calculations were evaluated by using Softmax PRO 4.3.2.LS software. The percent inhibitions of AChE/BChE were determined by comparing the reaction rates of the samples relative to a blank sample (ethanol in phosphate buffer pH = 8), using the formula (E − S)/E × 100, where E is the activity of enzyme without test sample, and S is the activity of the enzyme with the test sample. The experiments were conducted in six replicates. Galantamine (Sigma, St. Louis, MO, USA) was used as the reference.

[2] = target: T2, horse serum BChE (EC 3.1.1.8) (Equus caballus, UniProt P81908); experiment: BChE inhibition, modified Ellman's spectrophotometric assay; assay type: biochemical; conditions: for inhibition at 1000 µM: read-out: Inhibition (% ± S.D.) BChE
T2 construct: horse serum BChE (EC 3.1.1.8, Sigma, St. Louis, MO, USA) were used as the enzyme sources; purchased Sigma, St. Louis, MO, USA; host or cells: horse serum
T2 sequence (P81908 whole entry): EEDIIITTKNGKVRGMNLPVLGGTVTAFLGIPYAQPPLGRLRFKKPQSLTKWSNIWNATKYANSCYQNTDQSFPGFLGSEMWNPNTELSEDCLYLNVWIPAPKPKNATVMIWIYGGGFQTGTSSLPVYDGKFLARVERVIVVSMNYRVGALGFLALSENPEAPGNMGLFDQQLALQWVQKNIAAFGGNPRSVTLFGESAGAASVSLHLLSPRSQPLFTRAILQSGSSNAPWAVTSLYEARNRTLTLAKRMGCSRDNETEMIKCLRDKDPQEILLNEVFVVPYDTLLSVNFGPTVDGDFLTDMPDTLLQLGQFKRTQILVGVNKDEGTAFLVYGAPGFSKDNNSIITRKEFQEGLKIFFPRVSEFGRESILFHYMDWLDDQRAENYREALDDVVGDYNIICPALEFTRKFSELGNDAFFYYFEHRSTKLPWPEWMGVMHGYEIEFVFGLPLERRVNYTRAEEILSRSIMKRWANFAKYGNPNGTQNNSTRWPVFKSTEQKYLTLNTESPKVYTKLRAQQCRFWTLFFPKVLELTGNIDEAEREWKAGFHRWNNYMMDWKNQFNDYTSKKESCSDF
Experimental: as §1, §2

AChE/BChE = conditions: previous results; cited from earlier work
[3] = at 1000 µM final concentration, six replicates

Compound | activity against AChE (in words) [1] | inhibition at 1000 µM [1] [%] | activity against BChE (in words) [2] | inhibition at 1000 µM [2, 3] [%] | cholinesterase inhibitory activity (in words) (AChE/BChE) | IC50 [1] [µM] | inhibition at 1000 µM [2] [%]
COc1c(O)cc(/C=C/c2cc(O)cc(O)c2)cc1O [Compound 13, trans-3,3′,5,5′-tetrahydroxy-4′-methoxystilbene] | almost inactive | 19.3 ± 3.03 | almost inactive | 25.2 ± 2.58 |  |  | 
Oc1ccc(/C=C/c2cc(O)cc(O)c2)cc1 [Compound 21, Trans-resveratrol] |  |  |  |  | very weak activity |  | 
O=C1Oc2cc(O)c3c(c2C12c1c(O)cc(O)cc1OC2c1ccc(O)cc1)OC(c1ccc(O)cc1)C(O)C3 [Compound 26, (2S,2′R,3R,3′S)-3′,4,5′,6-tetrahydroxy-2,2′-bis(4-hydroxyphenyl)-3′,4′-dihydro-2H,2′H,8′H-spiro[benzofuran-3,9′-furo.[2,3-h]chromen]-8′-one] | very low and selective activities | 80.5 ± 1.22 |  | 48.5 ± 2.29 |  | 294 | 
O=C1Oc2cc(O)c3c(c2[C@]12c1c(O)cc(O)cc1O[C@H]2c1ccc(O)cc1)O[C@H](c1ccc(O)cc1)[C@@H](O)C3 [Compound 29, (2S,2′R,3S,3′S)-3′,4,5′,6-tetrahydroxy-2,2′-bis(4-hydroxyphenyl)-3′,4′-dihydro-2H,2′H,8′H-spiro[benzofuran-3,9′-furo[2,3-h]chromen]-8′-one] | very low and selective activities | 52.5 ± 2.6 |  | 33.4 ± 1.37 |  | 655 | 
COc1ccc2c3c1O[C@H]1C[C@@H](O)C=C[C@@]31CCN(C)C2 [Reference, Galantamine HBr, reference compound] |  |  |  |  |  |  | 91.5 ± 1.63
Oc1cc(O)cc(/C=C/c2ccc(O)c(O)c2)c1 [piceatannol, trans-3,3′,4′,5-tetrahydroxystilbene, reference compound] |  |  |  |  | much higher, selective against BChE, activity |  | 
